This is an account of results in patent publication US20050026911A1, “Benzotriazapinone salts and methods for using same” (priority 2003, published 2005).

This test has as its target T1, gastrin (CCK2) receptors (Rattus norvegicus, UniProt P30553).
T1 construct: The stomach was excised and flushed with ca. 1 ml of unbuffered physiological saline solution; from tissue; host or cells: isolated whole stomach of immature rats (ca. 21 days old)
T1 sequence (P30553 1-452): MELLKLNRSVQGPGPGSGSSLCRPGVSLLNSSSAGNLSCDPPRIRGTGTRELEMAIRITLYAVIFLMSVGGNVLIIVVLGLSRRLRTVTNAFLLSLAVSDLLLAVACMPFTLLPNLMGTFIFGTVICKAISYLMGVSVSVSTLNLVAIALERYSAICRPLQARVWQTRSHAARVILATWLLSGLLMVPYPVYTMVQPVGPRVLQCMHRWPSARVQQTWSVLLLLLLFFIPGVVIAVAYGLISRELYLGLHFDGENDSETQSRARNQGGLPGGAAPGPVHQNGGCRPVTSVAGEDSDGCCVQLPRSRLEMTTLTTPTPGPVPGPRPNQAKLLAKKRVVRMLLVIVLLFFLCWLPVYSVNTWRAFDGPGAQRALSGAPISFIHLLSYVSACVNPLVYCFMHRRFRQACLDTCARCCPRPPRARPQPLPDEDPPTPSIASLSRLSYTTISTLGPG
Nature of the test: gastrin (CCK2) antagonist activity in an immature rat stomach assay. Particulars: pentagastrin dose-response curves, acid secretion, read-out: pKB rat stomach (converted). The method, then:
The compounds of the examples were tested for gastrin (CCK2) antagonist activity in an immature rat stomach assay. The procedure was as follows:
The oesophagus of immature rats (33-50 g, ca. 21 days old) was ligated at the level of the cardiac sphincter and the duodenal sphincter was cannulated. The stomach was excised and flushed with ca. 1 ml of unbuffered physiological saline solution. The fundus was punctured and cannulated. A further 4-5 ml of unbuffered solution was flushed through the stomach to ensure the preparation was not leaking. […] The stomach was continuously perfused at a rate of 1 ml min^−1 with unbuffered solution gassed with 100% O2 with the perfusate passing over an internally referenced pH-electrode fixed 12 cm above the stomach.
After 120 min of stabilisation the drugs were added directly to the serosal solution in the organ bath and after a further 60 min cumulative pentagastrin dose-response curves were started.

Consider `CC(C)(C)C(=O)CN1C(=O)N(CC(=O)NCc2cccc(C(=O)O)c2)N=C(C2CCCCC2)c2ccccc21` [Example 45, 3-({2-[5-Cyclohexyl-1-(3,3-dimethyl-2-oxo-butyl)-2-oxo-1,2-dihydro-3H-1,3,4-benzotriazepin-3-yl]-acetylamino}-methyl)-benzoic acid], for which the Kb was 93.3 nM.
For `Cc1cccc(NNC(=O)CN2N=C(C3CCCCC3)c3ccccc3N(CC(=O)C(C)(C)C)C2=O)c1` [Example 46, [5-Cyclohexyl-1-(3,3-dimethyl-2-oxo-butyl)-2-oxo-1,2-dihydro-3H-1,3,4-benzotriazepin-3-yl]-acetic acid N′-m-tolyl-hydrazide], the Kb is 174 nM.
For `CC(C)(C)C(=O)CN1C(=O)N(CC(=O)Nc2cccc(CSC(=N)N)c2)N=C(C2CCCCC2)c2ccccc21` [Example 49, N-(3-Carbamimidoylsulfanylmethyl-phenyl)-2-[5-cyclohexyl-1-(3,3-dimethyl-2-oxo-butyl)-2-oxo-1,2-dihydro-3H-1,3,4-benzotriazepin-3-yl]-acetamide], the Kb is 100 nM.
The same measure for `CC(C)(C)C(=O)CN1C(=O)N(CC(=O)Nc2cccc(S(=O)(=O)CC(=O)O)c2)N=C(C2CCCCC2)c2ccccc21` [Example 50]: 11 nM; for `CC(C)(C)C(=O)CN1C(=O)N(CC(=O)Nc2cccc(NCC(=O)O)c2)N=C(C2CCCCC2)c2ccccc21` [Example 52]: 32.4 nM.
As for `CC(C)(C)C(=O)CN1C(=O)N(CC(=O)Nc2cccc(C(=O)O)c2)N=C(C23CC4CC(CC(C4)C2)C3)c2ccccc21` [Example 54, 3-{2-[5-Adamantan-1-yl-1-(3,3-dimethyl-2-oxo-butyl)2-oxo-1,2-dihydro-3H-1,3,4-benzotriazepin-3-yl]-acetylamino}-benzoic acid], the figure is 17 nM; as for `CNc1cccc(NC(=O)CN2N=C(C3CCCCC3)c3ccccc3N(CC(=O)C3CCCC3)C2=O)c1` [Example 57, 2-[5-Cyclohexyl-1-(2-cyclopentyl-2-oxo-ethyl)-2-oxo-1,2-dihydro-3H-1,3,4-benzotriazepin-3-yl]-N-(3-methylaminophenyl)-acetamide], 1.17 nM; as for `CC(C)(C)C(=O)CN1C(=O)N(CC(=O)Nc2cccc(/C=C/C(=O)O)c2)N=C(C2CCCCC2)c2ccccc21` [Example 60, 3-(3-{2-[5-Cyclohexyl-1-(3,3-dimethyl-2-oxo-butyl)-2-oxo-1,2-dihydro-3H-1,3,4-benzotriazepin-3-yl]-acetylamino}-phenyl)-acrylic acid], 3.47 nM.
Consider `CC(C)(C)C(=O)CN1C(=O)N(CC(=O)Nc2cccc(CCC(=O)O)c2)N=C(C2CCCCC2)c2ccccc21` [Example 61, 3-(3-{2-[5-Cyclohexyl-1-(3,3-dimethyl-2-oxo-butyl)-2-oxo-1,2-dihydro-3H-1,3,4-benzotriazepin-3-yl]-acetylamino}-phenyl)-propionic acid], for which the Kb was 4.47 nM.
For the molecule `CC(C)(C)C(=O)CN1C(=O)N(CC(=O)Nc2ccccn2)N=C(C2CCCCC2)c2ccccc21` [Example 63, 2-[5-Cyclohexyl-1-(3,3-dimethyl-2-oxo-butyl)-2-oxo-1,2-dihydro-3H-1,3,4-benzotriazepin-3-yl]-N-pyridin-2-yl-acetamide], the Kb was 661 nM.
As for `CC(=O)N(CC(=O)O)c1cccc(NC(=O)CN2N=C(C3CCCCC3)c3ccccc3N(CC(=O)C(C)(C)C)C2=O)c1` [Example 65, [Acetyl-(3-{2-[5-cyclohexyl-1-(3,3-dimethyl-2-oxo-butyl)-2-oxo-1,2-dihydro-3H-1,3,4-benzotriazepin-3-yl]-acetylamino}-phenyl)-amino]-acetic acid], the figure is 52.5 nM; as for `CC(C)(C)C(=O)CN1C(=O)N(CC(=O)Nc2cccc(NC(=O)CCC(=O)O)c2)N=C(C2CCCCC2)c2ccccc21` [Example 66, N-(3-{2-[5-Cyclohexyl-1-(3,3-dimethyl-2-oxo-butyl)-2-oxo-1,2-dihydro-3H-1,3,4-benzotriazepin-3-yl]-acetylamino}-phenyl)-succinamic acid], 74.1 nM.
